Source: the NIST ThermoML archive (doi:10.1021/je050353j)
Numbers after ± are expanded uncertainties.

Columns and labels:
[1] = refractive index (Na D-line) (dimensionless); details: 298.15 K; 100 kPa; Liquid; Standard Abbe refractometry
[2] = relative permittivity at zero frequency (dimensionless); xn = mol fraction of the nth substance listed; details: 298.15 K, Liquid, Parallel plate capacitor

OCCO [1,2-ethanediol]
refractive index [1]: 1.4304 ± 0.0008

OCCO [1,2-ethanediol] + O
relative permittivity at zero frequency ([2]; 100 kPa, x1 = 0.2): 65.26 ± 0.14 | relative permittivity at zero frequency ([2]; 100 kPa, x1 = 0.4): 56.38 ± 0.12 | relative permittivity at zero frequency ([2]; 100 kPa, x1 = 0.6): 49.73 ± 0.11 | relative permittivity at zero frequency ([2]; 100 kPa, x1 = 0.8): 44.76 ± 0.1 | relative permittivity at zero frequency ([2]; 50000 kPa, x1 = 0.2): 66.72 ± 0.14 | relative permittivity at zero frequency ([2]; 50000 kPa, x1 = 0.4): 57.74 ± 0.12 | relative permittivity at zero frequency ([2]; 50000 kPa, x1 = 0.6): 50.99 ± 0.11 | relative permittivity at zero frequency ([2]; 50000 kPa, x1 = 0.8): 45.95 ± 0.1 | relative permittivity at zero frequency ([2]; 100000 kPa, x1 = 0.2): 68.04 ± 0.14 | relative permittivity at zero frequency ([2]; 100000 kPa, x1 = 0.4): 58.96 ± 0.13 | relative permittivity at zero frequency ([2]; 100000 kPa, x1 = 0.6): 52.14 ± 0.11 | relative permittivity at zero frequency ([2]; 100000 kPa, x1 = 0.8): 47.04 ± 0.1 | relative permittivity at zero frequency ([2]; 150000 kPa, x1 = 0.2): 69.3 ± 0.15 | relative permittivity at zero frequency ([2]; 150000 kPa, x1 = 0.4): 60.14 ± 0.13 | relative permittivity at zero frequency ([2]; 150000 kPa, x1 = 0.6): 53.21 ± 0.11 | relative permittivity at zero frequency ([2]; 150000 kPa, x1 = 0.8): 48.05 ± 0.1 | relative permittivity at zero frequency ([2]; 200000 kPa, x1 = 0.2): 70.47 ± 0.15 | relative permittivity at zero frequency ([2]; 200000 kPa, x1 = 0.4): 61.19 ± 0.13 | relative permittivity at zero frequency ([2]; 200000 kPa, x1 = 0.6): 54.2 ± 0.12 | relative permittivity at zero frequency ([2]; 200000 kPa, x1 = 0.8): 49 ± 0.1 | relative permittivity at zero frequency ([2]; 250000 kPa, x1 = 0.2): 71.6 ± 0.15 | relative permittivity at zero frequency ([2]; 250000 kPa, x1 = 0.4): 62.23 ± 0.13 | relative permittivity at zero frequency ([2]; 250000 kPa, x1 = 0.6): 55.15 ± 0.12 | relative permittivity at zero frequency ([2]; 250000 kPa, x1 = 0.8): 49.89 ± 0.11 | relative permittivity at zero frequency ([2]; 300000 kPa, x1 = 0.2): 72.68 ± 0.15 | relative permittivity at zero frequency ([2]; 300000 kPa, x1 = 0.4): 63.22 ± 0.13 | relative permittivity at zero frequency ([2]; 300000 kPa, x1 = 0.6): 56.06 ± 0.12 | relative permittivity at zero frequency ([2]; 300000 kPa, x1 = 0.8): 50.72 ± 0.11

OCC(O)CO [glycerol]
refractive index [1]: 1.4722 ± 0.0008

OCC(O)CO [glycerol] + O
relative permittivity at zero frequency ([2]; 100 kPa, x1 = 0.2): 63.79 ± 0.14 | relative permittivity at zero frequency ([2]; 100 kPa, x1 = 0.4): 55.26 ± 0.12 | relative permittivity at zero frequency ([2]; 100 kPa, x1 = 0.6): 49.52 ± 0.11 | relative permittivity at zero frequency ([2]; 100 kPa, x1 = 0.8): 45.48 ± 0.1 | relative permittivity at zero frequency ([2]; 50000 kPa, x1 = 0.2): 65.05 ± 0.14 | relative permittivity at zero frequency ([2]; 50000 kPa, x1 = 0.4): 56.37 ± 0.12 | relative permittivity at zero frequency ([2]; 50000 kPa, x1 = 0.6): 50.55 ± 0.11 | relative permittivity at zero frequency ([2]; 50000 kPa, x1 = 0.8): 46.43 ± 0.1 | relative permittivity at zero frequency ([2]; 100000 kPa, x1 = 0.2): 66.28 ± 0.14 | relative permittivity at zero frequency ([2]; 100000 kPa, x1 = 0.4): 57.44 ± 0.12 | relative permittivity at zero frequency ([2]; 100000 kPa, x1 = 0.6): 51.5 ± 0.11 | relative permittivity at zero frequency ([2]; 100000 kPa, x1 = 0.8): 47.33 ± 0.1 | relative permittivity at zero frequency ([2]; 150000 kPa, x1 = 0.2): 67.44 ± 0.14 | relative permittivity at zero frequency ([2]; 150000 kPa, x1 = 0.4): 58.46 ± 0.12 | relative permittivity at zero frequency ([2]; 150000 kPa, x1 = 0.6): 52.42 ± 0.11 | relative permittivity at zero frequency ([2]; 150000 kPa, x1 = 0.8): 48.18 ± 0.1 | relative permittivity at zero frequency ([2]; 200000 kPa, x1 = 0.2): 68.55 ± 0.15 | relative permittivity at zero frequency ([2]; 200000 kPa, x1 = 0.4): 59.43 ± 0.13 | relative permittivity at zero frequency ([2]; 200000 kPa, x1 = 0.6): 53.29 ± 0.11 | relative permittivity at zero frequency ([2]; 200000 kPa, x1 = 0.8): 48.99 ± 0.1 | relative permittivity at zero frequency ([2]; 250000 kPa, x1 = 0.2): 69.62 ± 0.15 | relative permittivity at zero frequency ([2]; 250000 kPa, x1 = 0.4): 60.37 ± 0.13 | relative permittivity at zero frequency ([2]; 250000 kPa, x1 = 0.6): 54.14 ± 0.11 | relative permittivity at zero frequency ([2]; 250000 kPa, x1 = 0.8): 49.77 ± 0.11 | relative permittivity at zero frequency ([2]; 300000 kPa, x1 = 0.2): 70.65 ± 0.15 | relative permittivity at zero frequency ([2]; 300000 kPa, x1 = 0.4): 61.28 ± 0.13 | relative permittivity at zero frequency ([2]; 300000 kPa, x1 = 0.6): 54.95 ± 0.12 | relative permittivity at zero frequency ([2]; 300000 kPa, x1 = 0.8): 50.53 ± 0.11

O [water] + OCCO
relative permittivity at zero frequency ([2]; 100 kPa, x2 = 0): 78.39 ± 0.17 | relative permittivity at zero frequency ([2]; 50000 kPa, x2 = 0): 80.18 ± 0.17 | relative permittivity at zero frequency ([2]; 100000 kPa, x2 = 0): 81.88 ± 0.17 | relative permittivity at zero frequency ([2]; 150000 kPa, x2 = 0): 83.47 ± 0.18 | relative permittivity at zero frequency ([2]; 200000 kPa, x2 = 0): 85.01 ± 0.18 | relative permittivity at zero frequency ([2]; 250000 kPa, x2 = 0): 86.48 ± 0.18 | relative permittivity at zero frequency ([2]; 300000 kPa, x2 = 0): 87.94 ± 0.19
